# Measurements reported in patent US8952024B2, “Herbicidal pyrimidone derivatives” (E I du Pont de Nemours and Company, priority 2009, dated 2015).
# Where two headings read alike, the source gives them in different places.
# Legend:
# Assay in all cases: Test B pre-/postemergence plant response
# Type in all cases: in vivo
# [1] = tested on: blackgrass (Alopecurus myosuroides); details: Preemergence
# Procedure, shortened: (§1)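 Seeds sown in loam–sand blend were treated preemergence, and plants at 2–18 cm (1- to 4-leaf stage) in peat-based medium were treated postemergence; compounds were formulated in non-phytotoxic solvent with surfactant. After 13–15 days in greenhouse, response was visually rated against controls, 0 (no effect) to 100 (complete control).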
# [2] = tested on: green foxtail (Setaria viridis); details: for pest or weed control at 31 g/ha: 31 g ai/ha; for pest or weed control at 125 g/ha: 125 g ai/ha
# Procedure, shortened: as §1
# [3] = tested on: corn (Zea mays); details: for Corn plant response rating (crop injury, 0 = no effect, 100 = complete kill) at 31 g/ha: 31 g ai/ha; for Corn plant response rating (crop injury, 0 = no effect, 100 = complete kill) at 125 g/ha: 125 g ai/ha
# Procedure, shortened: as §1
# [4] = tested on: velvetleaf (Abutilon theophrasti); details: for pest or weed control at 31 g/ha: 31 g ai/ha; for pest or weed control at 125 g/ha: 125 g ai/ha
# Procedure, shortened: as §1
# [5] = tested on: goosegrass (Eleusine indica); details: for pest or weed control at 31 g/ha: 31 g ai/ha; for pest or weed control at 125 g/ha: 125 g ai/ha
# Procedure, shortened: as §1
# [6] = tested on: large crabgrass (Digitaria sanguinalis); details: for pest or weed control at 31 g/ha: 31 g ai/ha; for pest or weed control at 125 g/ha: 125 g ai/ha
# Procedure, shortened: as §1
# [7] = tested on: cocklebur (Xanthium strumarium); details: for pest or weed control at 31 g/ha: 31 g ai/ha; for pest or weed control at 125 g/ha: 125 g ai/ha
# Procedure, shortened: as §1
# [8] = tested on: wild oat (Avena fatua); details: for pest or weed control at 31 g/ha: 31 g ai/ha; for pest or weed control at 125 g/ha: 125 g ai/ha
# Procedure, shortened: as §1
# [9] = tested on: johnsongrass (Sorghum halepense); details: for pest or weed control at 31 g/ha: 31 g ai/ha; for pest or weed control at 125 g/ha: 125 g ai/ha
# Procedure, shortened: as §1
# [10] = 62 g ai/ha, postemergence, 0 is no effect, 100 is complete control, 13 to 15 days
# [11] = Preemergence, 250 g ai/ha, 0 to 100 scale
smiles,measurement,setting,value
"COCCCn1c(-c2ccccc2)ncc(C(=O)C2=C(O)CCCC2=O)c1=O [Compound 81, 5-[(2-hydroxy-6-oxo-cyclohexen-1-yl)carbonyl]-3-(3-methoxypropyl)-2-phenyl-4(3H)-pyrimidinone]",pest or weed control at 125 g/ha,"[1]; Alopecurus myosuroides, pre-emergence, 360 h, 125 g ai/ha, scale 0 to 100, 0 no effect, 100 complete control, read-out: Plant response rating, Blackgrass",35%
same,Blackgrass plant response rating,"[1]; 250 g ai/ha, 0 to 100 scale",35
same,"Foxtail, Green plant response rating (0 to 100 scale)",[2]; [10],85
same,"Foxtail, Green plant response rating",[2]; [11],100
same,pest or weed control at 31 g/ha,"[2]; Setaria viridis, post-emergence, postemergence, scale 0 to 100, 0 is no effect, 100 is complete control, read-out: Plant response rating, Foxtail, Green",5%
same,pest or weed control at 125 g/ha,"[2]; Setaria viridis, post-emergence, Postemergence, visual rating after 13 to 15 days, scale 0 (no effect) to 100 (complete control)",95%
same,pest or weed control at 250 g/ha,"[2]; Setaria viridis, post-emergence, Postemergence, 250 g ai/ha, scale 0 to 100 (0 no effect, 100 complete control), read-out: Plant response rating, Foxtail, Green",95%
same,pest or weed control at 31 g/ha,"[2]; Setaria viridis, pre-emergence, Preemergence, scale 0 to 100 (0 no effect, 100 complete control), read-out: Plant response rating, Foxtail, Green",80%
same,pest or weed control at 62 g/ha,"[2]; Setaria viridis, pre-emergence, Preemergence, 62 g ai/ha, scale 0 to 100, 0 no effect, 100 complete control, read-out: Plant response rating, Foxtail, Green",90%
same,pest or weed control at 125 g/ha,"[2]; Setaria viridis, pre-emergence, Preemergence, scale 0 to 100, 0 no effect, 100 complete control, read-out: Plant response rating, Foxtail, Green",100%
same,Corn plant response rating (0 to 100 scale),[3]; [10],10
same,Corn plant response rating,[3]; [11],55
same,"Corn plant response rating (crop injury, 0 = no effect, 100 = complete kill) at 31 g/ha","[3]; Zea mays, post-emergence, postemergence, scale 0 to 100, 0 is no effect, 100 is complete control",5%
same,"Corn plant response rating (crop injury, 0 = no effect, 100 = complete kill) at 125 g/ha","[3]; Zea mays, post-emergence, Postemergence, visual rating after 13 to 15 days, scale 0 (no effect) to 100 (complete control)",15%
same,"Corn plant response rating (crop injury, 0 = no effect, 100 = complete kill) at 250 g/ha","[3]; Zea mays, post-emergence, Postemergence, 250 g ai/ha, scale 0 to 100 (0 no effect, 100 complete control)",65%
same,"Corn plant response rating (crop injury, 0 = no effect, 100 = complete kill) at 31 g/ha","[3]; Zea mays, pre-emergence, Preemergence, scale 0 to 100 (0 no effect, 100 complete control)",40%
same,"Corn plant response rating (crop injury, 0 = no effect, 100 = complete kill) at 62 g/ha","[3]; Zea mays, pre-emergence, Preemergence, 62 g ai/ha, scale 0 to 100, 0 no effect, 100 complete control",40%
same,"Corn plant response rating (crop injury, 0 = no effect, 100 = complete kill) at 125 g/ha","[3]; Zea mays, pre-emergence, Preemergence, scale 0 to 100, 0 no effect, 100 complete control",50%
same,Velvetleaf plant response rating (0 to 100 scale),[4]; [10],100
same,pest or weed control at 31 g/ha,"[4]; Abutilon theophrasti, post-emergence, 360 h, postemergence, scale 0 to 100, 0 is no effect, 100 is complete control, read-out: Plant response rating, Velvetleaf",100%
same,pest or weed control at 125 g/ha,"[4]; Abutilon theophrasti, post-emergence, 360 h, Postemergence, visual rating after 13 to 15 days, scale 0 (no effect) to 100 (complete control)",100%
same,pest or weed control at 250 g/ha,"[4]; Abutilon theophrasti, post-emergence, 360 h, Postemergence, 250 g ai/ha, scale 0 to 100 (0 no effect, 100 complete control), read-out: Plant response rating, Velvetleaf",100%
same,pest or weed control at 31 g/ha,"[4]; Abutilon theophrasti, pre-emergence, 360 h, Preemergence, scale 0 to 100 (0 no effect, 100 complete control), read-out: Plant response rating, Velvetleaf",100%
same,pest or weed control at 62 g/ha,"[4]; Abutilon theophrasti, pre-emergence, 360 h, Preemergence, 62 g ai/ha, scale 0 to 100 (0 no effect, 100 complete control), read-out: Plant response rating, Velvetleaf",100%
same,pest or weed control at 125 g/ha,"[4]; Abutilon theophrasti, pre-emergence, 360 h, Preemergence, scale 0 to 100, 0 no effect, 100 complete control, read-out: Plant response rating, Velvetleaf",100%
same,Velvetleaf plant response rating,[4]; [11],100
same,Goosegrass plant response rating (0 to 100 scale),[5]; [10],70
same,pest or weed control at 31 g/ha,"[5]; Eleusine indica, post-emergence, postemergence, scale 0 to 100, 0 is no effect, 100 is complete control, read-out: Plant response rating, Goosegrass",65%
same,pest or weed control at 125 g/ha,"[5]; Eleusine indica, post-emergence, Postemergence, visual rating after 13 to 15 days, scale 0 (no effect) to 100 (complete control)",70%
same,pest or weed control at 250 g/ha,"[5]; Eleusine indica, post-emergence, Postemergence, 250 g ai/ha, scale 0 to 100 (0 no effect, 100 complete control), read-out: Plant response rating, Goosegrass",80%
same,pest or weed control at 31 g/ha,"[5]; Eleusine indica, pre-emergence, Preemergence, scale 0 to 100 (0 no effect, 100 complete control), read-out: Plant response rating, Goosegrass",98%
same,pest or weed control at 62 g/ha,"[5]; Eleusine indica, pre-emergence, Preemergence, 62 g ai/ha, scale 0 to 100, 0 no effect, 100 complete control, read-out: Plant response rating, Goosegrass",98%
same,pest or weed control at 125 g/ha,"[5]; Eleusine indica, pre-emergence, Preemergence, scale 0 to 100, 0 no effect, 100 complete control, read-out: Plant response rating, Goosegrass",100%
same,Goosegrass plant response rating,[5]; [11],100
same,"Crabgrass, Large plant response rating (0 to 100 scale)",[6]; [10],95
same,pest or weed control at 31 g/ha,"[6]; Digitaria sanguinalis, post-emergence, postemergence, scale 0 to 100, 0 is no effect, 100 is complete control, read-out: Plant response rating, Crabgrass, Large",85%
same,pest or weed control at 125 g/ha,"[6]; Digitaria sanguinalis, post-emergence, Postemergence, visual rating after 13 to 15 days, scale 0 (no effect) to 100 (complete control)",95%
same,pest or weed control at 250 g/ha,"[6]; Digitaria sanguinalis, post-emergence, Postemergence, 250 g ai/ha, scale 0 to 100 (0 no effect, 100 complete control), read-out: Plant response rating, Crabgrass, Large",98%
same,pest or weed control at 31 g/ha,"[6]; Digitaria sanguinalis, pre-emergence, Preemergence, scale 0 to 100 (0 no effect, 100 complete control), read-out: Plant response rating, Crabgrass, Large",100%
same,pest or weed control at 62 g/ha,"[6]; Digitaria sanguinalis, pre-emergence, Preemergence, 62 g ai/ha, scale 0 to 100, 0 no effect, 100 complete control, read-out: Plant response rating, Crabgrass, Large",100%
same,pest or weed control at 125 g/ha,"[6]; Digitaria sanguinalis, pre-emergence, Preemergence, scale 0 to 100, 0 no effect, 100 complete control, read-out: Plant response rating, Crabgrass, Large",100%
same,"Crabgrass, Large plant response rating",[6]; [11],100
same,Cocklebur plant response rating (0 to 100 scale),[7]; [10],55
same,Cocklebur plant response rating,[7]; [11],85
same,pest or weed control at 31 g/ha,"[7]; Xanthium strumarium, post-emergence, postemergence, scale 0 to 100, 0 is no effect, 100 is complete control, read-out: Plant response rating, Cocklebur",5%
same,pest or weed control at 125 g/ha,"[7]; Xanthium strumarium, post-emergence, Postemergence, visual rating after 13 to 15 days, scale 0 (no effect) to 100 (complete control)",65%
same,pest or weed control at 250 g/ha,"[7]; Xanthium strumarium, post-emergence, Postemergence, 250 g ai/ha, scale 0 to 100 (0 no effect, 100 complete control), read-out: Plant response rating, Cocklebur",90%
same,pest or weed control at 31 g/ha,"[7]; Xanthium strumarium, pre-emergence, Preemergence, scale 0 to 100 (0 no effect, 100 complete control), read-out: Plant response rating, Cocklebur",0%
same,pest or weed control at 62 g/ha,"[7]; Xanthium strumarium, pre-emergence, Preemergence, 62 g ai/ha, scale 0 to 100, 0 no effect, 100 complete control, read-out: Plant response rating, Cocklebur",10%
same,pest or weed control at 125 g/ha,"[7]; Xanthium strumarium, pre-emergence, Preemergence, scale 0 to 100, 0 no effect, 100 complete control, read-out: Plant response rating, Cocklebur",75%
same,"Oat, Wild plant response rating (0 to 100 scale)",[8]; [10],35
same,pest or weed control at 31 g/ha,"[8]; Avena fatua, post-emergence, postemergence, scale 0 to 100, 0 is no effect, 100 is complete control, read-out: Plant response rating, Oat, Wild",25%
same,pest or weed control at 125 g/ha,"[8]; Avena fatua, post-emergence, Postemergence, visual rating after 13 to 15 days, scale 0 (no effect) to 100 (complete control)",50%
same,pest or weed control at 250 g/ha,"[8]; Avena fatua, post-emergence, Postemergence, 250 g ai/ha, scale 0 to 100 (0 no effect, 100 complete control), read-out: Plant response rating, Oat, Wild",55%
same,pest or weed control at 31 g/ha,"[8]; Avena fatua, pre-emergence, Preemergence, scale 0 to 100 (0 no effect, 100 complete control), read-out: Plant response rating, Oat, Wild",0%
same,pest or weed control at 62 g/ha,"[8]; Avena fatua, pre-emergence, Preemergence, 62 g ai/ha, scale 0 to 100 (0 no effect, 100 complete control), read-out: Plant response rating, Oat, Wild",0%
same,pest or weed control at 125 g/ha,"[8]; Avena fatua, pre-emergence, Preemergence, scale 0 to 100, 0 no effect, 100 complete control, read-out: Plant response rating, Oat, Wild",0%
same,"Oat, Wild plant response rating",[8]; [11],0
same,Johnsongrass plant response rating (0 to 100 scale),[9]; [10],10
same,Johnsongrass plant response rating,[9]; [11],90
same,pest or weed control at 31 g/ha,"[9]; Sorghum halepense, post-emergence, postemergence, scale 0 to 100, 0 is no effect, 100 is complete control, read-out: Plant response rating, Johnsongrass",5%
same,pest or weed control at 125 g/ha,"[9]; Sorghum halepense, post-emergence, Postemergence, visual rating after 13 to 15 days, scale 0 (no effect) to 100 (complete control)",75%
same,pest or weed control at 250 g/ha,"[9]; Sorghum halepense, post-emergence, Postemergence, 250 g ai/ha, scale 0 to 100 (0 no effect, 100 complete control), read-out: Plant response rating, Johnsongrass",100%
same,pest or weed control at 31 g/ha,"[9]; Sorghum halepense, pre-emergence, Preemergence, scale 0 to 100 (0 no effect, 100 complete control), read-out: Plant response rating, Johnsongrass",10%
same,pest or weed control at 62 g/ha,"[9]; Sorghum halepense, pre-emergence, Preemergence, 62 g ai/ha, scale 0 to 100, 0 no effect, 100 complete control, read-out: Plant response rating, Johnsongrass",80%
same,pest or weed control at 125 g/ha,"[9]; Sorghum halepense, pre-emergence, Preemergence, scale 0 to 100, 0 no effect, 100 complete control, read-out: Plant response rating, Johnsongrass",90%
